Our source for the EC50 values is patent publication US20090098130A1, “GLUCAGON-LIKE PROTEIN-1 RECEPTOR (GLP-1R) AGONIST COMPOUNDS” (priority 2007, published 2009).

Non-standard residues stand in square brackets, D forms with d. Residues, ends and D or L forms follow the SMILES beside them. Aib = CC(C)(N)C(=O)O Bounds are passed on as bounds.

This experiment concerns pancreatic β cells. The experiment can be described thus: glucose-stimulated insulin secretion (GSIS) assay. The class given is cell-based. The settings on record: GA targeting peptide; insulin secretion from pancreatic β cell cultures in vitro with glucose. The protocol: Briefly, glucose and GA targeting peptide was added at various concentrations to pancreatic β cell cultures, and insulin secretion was detected by measuring insulin levels over time. EC50 was calculated for each peptide.
The ability of these GA targeting agent-linker conjugates to stimulate […] secretion in vitro was measured using the GSIS assay described in Example 27. […] Each of these peptides contained a side-chain modified Lys residue according to the scheme illustrated in FIG. 30 at a different position.

In the case of `CC[C@H](C)[C@H](NC(=O)[C@H](Cc1ccccc1)NC(=O)[C@H](CCC(=O)O)NC(=O)[C@H](CCCCN)NC(=O)[C@H](C)NC(=O)[C@H](C)NC(=O)[C@H](CCC(N)=O)NC(=O)[C@H](CC(=O)O)NC(=O)[C@H](CCC(=O)O)NC(=O)[C@H](CC(C)C)NC(=O)[C@H](Cc1ccc(O)cc1)NC(=O)[C@H](CO)NC(=O)[C@H](CO)NC(=O)[C@@H](NC(=O)[C@H](CC(=O)O)NC(=O)[C@H](CO)NC(=O)[C@@H](NC(=O)[C@H](Cc1ccccc1)NC(=O)[C@@H](NC(=O)CNC(=O)[C@H](CCC(=O)O)NC(=O)C(C)(C)NC(=O)[C@@H](N)Cc1c[nH]cn1)[C@@H](C)O)[C@@H](C)O)C(C)C)C(=O)N[C@@H](C)C(=O)N[C@@H](Cc1c[nH]c2ccccc12)C(=O)N[C@@H](CC(C)C)C(=O)N[C@H](C(=O)N[C@@H](CCCCN)C(=O)NC(C)(C)C(=O)N[C@@H](CCCNC(=N)N)C(N)=O)C(C)C` [SEQ ID NO: 46] (H-H[Aib]EGTFTSDVSSYLEDQAAKEFIAWLVK[Aib]R-NH2), the EC50 was < 10 µM.
The value for `CC[C@H](C)[C@H](NC(=O)[C@H](Cc1ccccc1)NC(=O)[C@H](CCC(=O)O)NC(=O)[C@H](CCCCN)NC(=O)[C@H](C)NC(=O)[C@H](C)NC(=O)[C@H](CCC(N)=O)NC(=O)[C@H](CCCCN)NC(=O)[C@H](CCC(=O)O)NC(=O)[C@H](CC(C)C)NC(=O)[C@H](Cc1ccc(O)cc1)NC(=O)[C@H](CO)NC(=O)[C@H](CO)NC(=O)[C@@H](NC(=O)[C@H](CC(=O)O)NC(=O)[C@H](CO)NC(=O)[C@@H](NC(=O)[C@H](Cc1ccccc1)NC(=O)[C@@H](NC(=O)CNC(=O)[C@H](CCC(=O)O)NC(=O)C(C)(C)NC(=O)[C@@H](N)Cc1c[nH]cn1)[C@@H](C)O)[C@@H](C)O)C(C)C)C(=O)N[C@@H](C)C(=O)N[C@@H](Cc1c[nH]c2ccccc12)C(=O)N[C@@H](CC(C)C)C(=O)N[C@H](C(=O)N[C@@H](CCCCN)C(=O)NC(C)(C)C(=O)N[C@@H](CCCNC(=N)N)C(N)=O)C(C)C` [SEQ ID NO: 47] (H-H[Aib]EGTFTSDVSSYLEKQAAKEFIAWLVK[Aib]R-NH2) was < 10 µM; that for `CC[C@H](C)[C@H](NC(=O)[C@H](C)NC(=O)[C@H](CCC(N)=O)NC(=O)CNC(=O)[C@H](CCC(=O)O)NC(=O)[C@H](CC(C)C)NC(=O)[C@H](Cc1ccc(O)cc1)NC(=O)[C@H](CO)NC(=O)[C@H](CO)NC(=O)[C@@H](NC(=O)[C@H](CC(=O)O)NC(=O)[C@H](CO)NC(=O)[C@@H](NC(=O)[C@H](Cc1ccccc1)NC(=O)[C@@H](NC(=O)CNC(=O)[C@H](CCC(=O)O)NC(=O)C(C)(C)NC(=O)[C@@H](N)Cc1c[nH]cn1)[C@@H](C)O)[C@@H](C)O)C(C)C)C(=O)N[C@@H](CCCCN)C(=O)N[C@@H](CCC(=O)O)C(=O)N[C@@H](Cc1ccccc1)C(=O)N[C@H](C(=O)N[C@@H](C)C(=O)N[C@@H](Cc1c[nH]c2ccccc12)C(=O)N[C@@H](CC(C)C)C(=O)N[C@H](C(=O)N[C@@H](CCCCN)C(=O)NC(C)(C)C(=O)N[C@@H](CCCNC(=N)N)C(N)=O)C(C)C)[C@@H](C)CC` [SEQ ID NO: 49] (H-H[Aib]EGTFTSDVSSYLEGQAIKEFIAWLVK[Aib]R-NH2) was < 10 µM.
The value for `CC[C@H](C)[C@H](NC(=O)[C@H](Cc1ccccc1)NC(=O)[C@H](CCC(=O)O)NC(=O)[C@H](CCCCN)NC(=O)[C@H](CC(C)C)NC(=O)[C@H](C)NC(=O)[C@H](CCC(N)=O)NC(=O)CNC(=O)[C@H](CCC(=O)O)NC(=O)[C@H](CC(C)C)NC(=O)[C@H](Cc1ccc(O)cc1)NC(=O)[C@H](CO)NC(=O)[C@H](CO)NC(=O)[C@@H](NC(=O)[C@H](CC(=O)O)NC(=O)[C@H](CO)NC(=O)[C@@H](NC(=O)[C@H](Cc1ccccc1)NC(=O)[C@@H](NC(=O)CNC(=O)[C@H](CCC(=O)O)NC(=O)C(C)(C)NC(=O)[C@@H](N)Cc1c[nH]cn1)[C@@H](C)O)[C@@H](C)O)C(C)C)C(=O)N[C@@H](C)C(=O)N[C@@H](Cc1c[nH]c2ccccc12)C(=O)N[C@@H](CC(C)C)C(=O)N[C@H](C(=O)N[C@@H](CCCCN)C(=O)NC(C)(C)C(=O)N[C@@H](CCCNC(=N)N)C(N)=O)C(C)C` [SEQ ID NO: 50] (H-H[Aib]EGTFTSDVSSYLEGQALKEFIAWLVK[Aib]R-NH2) was < 10 µM; that for `CC[C@H](C)[C@H](NC(=O)[C@H](Cc1ccccc1)NC(=O)[C@H](CCC(=O)O)NC(=O)[C@H](CCCNC(=N)N)NC(=O)[C@H](C)NC(=O)[C@H](C)NC(=O)[C@H](CCC(N)=O)NC(=O)CNC(=O)[C@H](CCC(=O)O)NC(=O)[C@H](CC(C)C)NC(=O)[C@H](Cc1ccc(O)cc1)NC(=O)[C@H](CO)NC(=O)[C@H](CO)NC(=O)[C@@H](NC(=O)[C@H](CC(=O)O)NC(=O)[C@H](CO)NC(=O)[C@@H](NC(=O)[C@H](Cc1ccccc1)NC(=O)[C@@H](NC(=O)CNC(=O)[C@H](CCC(=O)O)NC(=O)C(C)(C)NC(=O)[C@@H](N)Cc1c[nH]cn1)[C@@H](C)O)[C@@H](C)O)C(C)C)C(=O)N[C@@H](C)C(=O)N[C@@H](Cc1c[nH]c2ccccc12)C(=O)N[C@@H](CC(C)C)C(=O)N[C@H](C(=O)N[C@@H](CCCCN)C(=O)NC(C)(C)C(=O)N[C@@H](CCCNC(=N)N)C(N)=O)C(C)C` [SEQ ID NO: 51] (H-H[Aib]EGTFTSDVSSYLEGQAAREFIAWLVK[Aib]R-NH2) was < 10 µM.
The value for `CC[C@H](C)[C@H](NC(=O)[C@H](Cc1ccccc1)NC(=O)[C@H](CCC(=O)O)NC(=O)[C@H](CCCCN)NC(=O)[C@H](C)NC(=O)[C@H](C)NC(=O)[C@H](CCC(N)=O)NC(=O)CNC(=O)[C@H](CCC(=O)O)NC(=O)[C@H](CC(C)C)NC(=O)[C@H](Cc1ccc(O)cc1)NC(=O)[C@H](CO)NC(=O)[C@H](CO)NC(=O)[C@@H](NC(=O)[C@H](CC(=O)O)NC(=O)[C@H](CO)NC(=O)[C@@H](NC(=O)[C@H](Cc1ccccc1)NC(=O)[C@@H](NC(=O)CNC(=O)[C@H](CCC(=O)O)NC(=O)C(C)(C)NC(=O)[C@@H](N)Cc1c[nH]cn1)[C@@H](C)O)[C@@H](C)O)C(C)C)C(=O)N[C@@H](C)C(=O)N[C@@H](Cc1ccccc1)C(=O)N[C@@H](CC(C)C)C(=O)N[C@H](C(=O)N[C@@H](CCCCN)C(=O)NC(C)(C)C(=O)N[C@@H](CCCNC(=N)N)C(N)=O)C(C)C` [SEQ ID NO: 53] was < 10 µM; that for `CC[C@H](C)[C@H](NC(=O)[C@H](Cc1ccccc1)NC(=O)[C@H](CCC(=O)O)NC(=O)[C@H](CCCCN)NC(=O)[C@H](C)NC(=O)[C@H](C)NC(=O)[C@H](CCC(N)=O)NC(=O)CNC(=O)[C@H](CCC(=O)O)NC(=O)[C@H](CC(C)C)NC(=O)[C@H](Cc1ccc(O)cc1)NC(=O)[C@H](CO)NC(=O)[C@H](CO)NC(=O)[C@@H](NC(=O)[C@H](CC(=O)O)NC(=O)[C@H](CO)NC(=O)[C@@H](NC(=O)[C@H](Cc1ccccc1)NC(=O)[C@@H](NC(=O)CNC(=O)[C@H](CCC(=O)O)NC(=O)C(C)(C)NC(=O)[C@@H](N)Cc1c[nH]cn1)[C@@H](C)O)[C@@H](C)O)C(C)C)C(=O)N[C@@H](C)C(=O)N[C@@H](Cc1c[nH]c2ccccc12)C(=O)N[C@@H](CC(C)C)C(=O)N[C@H](C(=O)N[C@@H](CCCCN)C(=O)NC(C)(C)C(=O)N[C@@H](CCCNC(=N)N)C(N)=O)[C@@H](C)CC` [SEQ ID NO: 54] was < 10 µM; that for `CC[C@H](C)[C@H](NC(=O)[C@H](Cc1ccccc1)NC(=O)[C@H](CCC(=O)O)NC(=O)[C@H](CCCCN)NC(=O)[C@H](C)NC(=O)[C@H](C)NC(=O)[C@H](CCC(N)=O)NC(=O)CNC(=O)[C@H](CCC(=O)O)NC(=O)[C@H](CC(C)C)NC(=O)[C@H](Cc1ccc(O)cc1)NC(=O)[C@H](CO)NC(=O)[C@H](CO)NC(=O)[C@@H](NC(=O)[C@H](CC(=O)O)NC(=O)[C@H](CO)NC(=O)[C@@H](NC(=O)[C@H](Cc1ccccc1)NC(=O)[C@@H](NC(=O)CNC(=O)[C@H](CCC(=O)O)NC(=O)C(C)(C)NC(=O)[C@@H](N)Cc1c[nH]cn1)[C@@H](C)O)[C@@H](C)O)C(C)C)C(=O)N[C@@H](C)C(=O)N[C@@H](Cc1c[nH]c2ccccc12)C(=O)N[C@@H](CC(C)C)C(=O)N[C@H](C(=O)N[C@@H](CCCNC(=N)N)C(=O)NC(C)(C)C(=O)N[C@@H](CCCNC(=N)N)C(N)=O)C(C)C` [SEQ ID NO: 55] was < 10 µM.
`CC[C@H](C)[C@H](NC(=O)[C@H](Cc1ccccc1)NC(=O)[C@H](CCC(=O)O)NC(=O)[C@H](CCCCN)NC(=O)[C@@H](NC(=O)[C@H](C)NC(=O)[C@H](CCC(N)=O)NC(=O)[C@H](CCC(=O)O)NC(=O)[C@H](CCC(=O)O)NC(=O)[C@H](CC(C)C)NC(=O)[C@H](Cc1ccc(O)cc1)NC(=O)[C@H](CO)NC(=O)[C@H](CO)NC(=O)[C@@H](NC(=O)[C@H](CC(=O)O)NC(=O)[C@H](CO)NC(=O)[C@@H](NC(=O)[C@H](Cc1ccccc1)NC(=O)[C@@H](NC(=O)CNC(=O)[C@H](CCC(=O)O)NC(=O)C(C)(C)NC(=O)[C@@H](N)Cc1c[nH]cn1)[C@@H](C)O)[C@@H](C)O)C(C)C)C(C)C)C(=O)N[C@@H](C)C(=O)N[C@@H](Cc1c[nH]c2ccccc12)C(=O)N[C@@H](CC(C)C)C(=O)N[C@H](C(=O)N[C@@H](CCCCN)C(=O)NC(C)(C)C(=O)N[C@@H](CCCNC(=N)N)C(N)=O)[C@@H](C)CC` [SEQ ID NO: 57]: the EC50 is < 10 µM.
The value for `CC[C@H](C)[C@H](NC(=O)[C@H](Cc1ccccc1)NC(=O)[C@H](CCC(=O)O)NC(=O)[C@H](CCCCN)NC(=O)[C@@H](NC(=O)[C@H](C)NC(=O)[C@H](CCC(N)=O)NC(=O)[C@H](CCC(=O)O)NC(=O)[C@H](CCC(=O)O)NC(=O)[C@H](Cc1ccccc1)NC(=O)[C@H](Cc1ccc(O)cc1)NC(=O)[C@H](CO)NC(=O)[C@H](CO)NC(=O)[C@@H](NC(=O)[C@H](CC(=O)O)NC(=O)[C@H](CO)NC(=O)[C@@H](NC(=O)[C@H](Cc1ccccc1)NC(=O)[C@@H](NC(=O)CNC(=O)[C@H](CCC(=O)O)NC(=O)C(C)(C)NC(=O)[C@@H](N)Cc1c[nH]cn1)[C@@H](C)O)[C@@H](C)O)C(C)C)C(C)C)C(=O)N[C@@H](C)C(=O)N[C@@H](Cc1c[nH]c2ccccc12)C(=O)N[C@@H](CC(C)C)C(=O)N[C@H](C(=O)N[C@@H](CCCCN)C(=O)NC(C)(C)C(=O)N[C@@H](CCCNC(=N)N)C(N)=O)[C@@H](C)CC` [SEQ ID NO: 58] (H-H[Aib]EGTFTSDVSSYFEEQAVKEFIAWLIK[Aib]R-NH2) was < 10 µM.

The term EC50 denotes the concentration that produces a half-maximal response. Low values mean an effect from little substance, high ones a need for much substance.
